Paper PMC6514812, “[^18F]Fluoroethyltriazolyl Monocyclam Derivatives as Imaging Probes for the Chemokine Receptor CXCR4” (Molecules, 2019)

Columns and labels:
PC3-CXCR4 cells = assay: Cell-associated activity in PC3-CXCR4 cells; assay type: cell-based, human; conditions: 1 h
Experimental: Maximum cell-associated activity was calculated by subtracting the cell uptake of the radioactive ligand at the highest non-radioactive ligand concentration of 10 µM (which we considered to be non-specific uptake/binding) from the cell uptake at the lowest non-radioactive ligand concentration of 10^−5 µM.

CXCR4 [1] = target: T1, CXCR4 (Homo sapiens, UniProt P61073); assay: Competition binding assay vs [^68Ga]Pentixafor in PC3-CXCR4 cells; conditions: for Hill Slope, Competitive Binding Experiment: vs [^68Ga]Pentixafor, value ± SD
T1 construct: expressed in transfected cells; host or cells: PC3 (human prostate cancer) cells stably transduced with CXCR4
Experimental: PC3-CXCR4 cells were plated in 12-well plates at a density of 500,000 cells per well and incubated for 48 h at 37 °C/5% CO2. Prior to the binding assay the cells were incubated in fresh media and 370–555 kBq of [^68Ga]Pentixafor or [^18F]RPS-544 was added to each well. The corresponding concentration of [^68Ga]Pentixafor in each well was 100 nM, and the concentration of [^18F]RPS-544 was approximately 5 pM. Then non-radioactive ligands were added to give a final ligand concentration in the range 0.001–10,000 nM. A total of eight concentrations were studied, and each concentration was tested in triplicate. The cells were incubated for 60 min at 37 °C/5% CO2. The media was removed under suction, the cells were washed with cold PBS 1X and detached and transferred to tubes for counting in 1 M NaOH. The cells were counted in a Wizard^2 Gamma Counter (PerkinElmer, Waltham, MA, USA). Non-specific binding was subtracted, and the IC50 values were determined by assuming a simple competitive binding interaction and fitting the data to a sigmoidal Hill plot in Origin 9.0 (OriginLab, Northampton, MA, USA). Potencies are expressed as IC50 ± standard deviation (Supplemental Data, Figure S7).

CXCR4 [2] = target: T1, CXCR4; assay: Saturation binding assay in PC3-CXCR4 cells
Experimental: To determine the dissociation constants, saturation binding assays were performed in the PC3-CXCR4 cells. The cells were plated as described above, and approximately 5 nM of the radioligand was added to each well. Then the corresponding non-radioactive ligand was added to give a final concentration in the range 0.001–10,000 nM. A total of eight concentrations were tested, and each concentration was tested in triplicate. The samples were washed and counted as described above. Non-specific binding was subtracted, and Kd values were determined by performing a nonlinear one site binding curve fit with equation y = (Bmax · x)/(Kd + x). Values are expressed as Kd ± standard deviation (Supplemental Data, Figure S8).

T1 sequence (P61073 whole entry): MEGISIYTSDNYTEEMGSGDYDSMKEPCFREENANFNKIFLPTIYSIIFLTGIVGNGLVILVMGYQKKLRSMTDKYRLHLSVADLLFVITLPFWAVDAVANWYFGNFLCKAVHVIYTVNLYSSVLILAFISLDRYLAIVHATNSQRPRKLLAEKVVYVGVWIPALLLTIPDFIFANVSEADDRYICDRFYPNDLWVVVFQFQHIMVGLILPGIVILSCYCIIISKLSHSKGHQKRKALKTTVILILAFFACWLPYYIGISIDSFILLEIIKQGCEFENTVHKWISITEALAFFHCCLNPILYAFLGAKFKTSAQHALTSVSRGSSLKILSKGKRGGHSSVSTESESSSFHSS

Row | Compound | Cell-Associated Activity (PC3-CXCR4 cells) [%IA] | IC50 (CXCR4 [1]; vs 100 nM [^68Ga]Pentixafor, PC3-CXCR4 cells, 60 min 37 °C) [nM] | Hill Slope, Competitive Binding Experiment (CXCR4 [1]) | Kd (CXCR4 [2]; saturation binding, PC3-CXCR4 cells) [nM] | Hill Slope, Saturation Binding Experiment (CXCR4 [2]; value ± SD)
1 | FCCn1cc(NCc2ccc(CN3CCCNCCNCCCNCC3)cc2)nn1 [RPS-546] | 1.2 ± 0.1 | ~1500 | 0.96 ± 0.10 | ~1700 | 0.98 ± 0.19
2 | c1ccc(CNCc2ccc(CN3CCCNCCNCCCNCC3)cc2)nc1 [AMD-3465, reference compound] |  |  | 1.01 ± 0.30 |  | 
